Results reported in patent US5298621A, “Oligopeptide derivatives of ipoxantine endowed with immunomodulating activity and pharmaceutical compositions containing same” (Sigma-Tau Industrie Farmaceutiche Riunite S.p.A., priority 1990, dated 1994).

Tests used:
[1] = tested on: responders (thymus of C57B1/6) induced by stimulators (spleen of DBA/2); experiment: "In vitro-ex vivo" mixed lymphocyte reaction (MLR); parameters: species or system mice; conditions: for Body weight / Spleen weight / Thymus weight / ^3 H-TdR Incorporation (cpm ± S.E.) Non stimulated responders / ^3 H-TdR Incorporation (cpm ± S.E.) Stimulated responders / Thymocytes No. (× 10^7): 25 mg/kg/day i.p. from day -5 to day -1; for stimulator splenocytes-induced proliferation of responder thymocytes (in words): comparison with ST 789; for Thymocytes No. (× 10^7): pooled samples
Procedure: Test 8 Assessment of the "in vitro-ex vivo" effect of ST 733, ST 754 and ST 789 on the mixed lymphocyte reaction (MLR).
Male DBA/2 mice (Charles River, Italy) aged 8 weeks were used as "stimulators" (4 animals per group); male inbred C57 B1/6 mice (Charles River, Italy) were used as "responders" (4 animals per group).
The compounds were administered i.p. from day -5 to day -1 (thymus excision of "responders" at day 0) 25 mg/kg/day.
The experimental procedure that was used is described by Hudson, L. and Hay, F. C., Practical Immunology, Blackwell Scientific Publication 290 (1980).

Klebsiella oxytoca = experiment: Protective effect in immunodepressed mice infected with Klebsiella oxytoca; assay type: in vivo; conditions: 25 mg/kg/day i.p. day -5 to -1, versus 44% mortality in the control group
Procedure: Test 2 Assessment of the protective effect induced by ST 657, ST 733, ST 754 and ST 789 on immunodepressed mice experimentally infected.
The immunosuppressor (cyclophosphamide) was administered i.p. in 0.2 mL of sterile saline, 100 mg/kg, 5 days before the infective challenge.
Compounds ST 733 and ST 754 (relevant data not shown in the tables) were administered i.p. (25 mg/kg/day) from day -5 (cyclophosphamide administration day) to day -1 (challenge at day 0) and tested utilizing Klebsiella oxytoca as infectious agent.

splenocytes = experiment: "In vitro-ex vivo" mytogen (PHA)-induced splenocyte proliferation in mice
Procedure: Test 5 Assessment of the "in vitro-ex vivo" effect of ST 733 and ST 789 on the mytogen (PHA)-induced splenocyte proliferation in mice.
Male B6 D2 F1 mice (Charles River, Italy) aged 7-8 weeks (4 animals per group) were used.
PHA (phytohemagglutinine) active on T lymphocytes was used as mytogen. The mytogen was tested at three different concentrations (suboptimal, optimal, superoptimal): 0.5, 2 and 4 mcg/mL/well.
The compounds were administered i.p. 25 mg/kg/day from day -5 to day -1 (spleen excision at day 0).
The experimental procedure was conducted substantially as described by Kirchner et al, "Splenic suppressor macrophages induced in mice by injection of C. parvum", J. Immunol., 1975, 115:1212.
In particular, the cell suspensions obtained from the spleens of the animals of the same group were pooled and the cell concentration was adjusted to 5×10^6 cell/mL.
To volumes of 0.1 mL of each sample, equal volumes of the mytogen preparation were added so as to obtain the previously indicated final concentrations.
Each sample was prepared in triplicate in U-bottom microtiters. A control, to which 0.1 mL of medium was added instead of the mytogen, was also prepared. The control permits the extent of spontaneous proliferation in the absence of stimulation to be assessed.
The samples were incubated at 37° C. for 48 hours and then they were pulsed with 20 μL ^3 H-TdR (25 μCi/mL).
After 18 hours of further incubation, the cells were collected on filters and counted in a beta-counter to evaluate the incorporated radioactivity (in cpm).
The results for each sample are expressed by calculating the value of the area under the curve (AUC) obtained by plotting the values of the incorporated radioactivity (in cpm) versus the three concentrations of mytogen.
In addition to AUC, also the stimulation index (SI) is considered, that is defined as follows: [formula]

DTH reaction vs. SRBC = experiment: Delayed type hypersensitivity test (DTH) vs. SRBC in mice; assay type: in vivo
Procedure: Test 6 Assessment of the effect of ST 785 and ST 789 on the delayed type hypersensitivity test (DTH).
Male B6 D2 F1 mice (Charles River, Italy) aged 6, 12 and 16 weeks (8 animals per group) were used.
The compounds were administered i.p., 25 mg/kg/day from day -3 to day +3 (immunization at day 0). Immunization was carried out by s.c. injection in the upper dorsal zone of the animals of 0.2 mL of SRBC (5×10^7 cells/mL).
Four days following the sensitizing injection, the animals were administered the challenge injection to bring about the delayed hypersensibility reaction. 50 μL of SRBC solution (2×10^9 cells/mL) were injected in the left hind foot-pad of the mice. The contralateral foot-pad received an equal volume of PBS. 24 hours after the challenge injection, the animals were sacrificed by cervical dislocation. The legs were amputated and the differences in weight between the left leg (treated with the challenge injection) and the contralateral leg were evaluated.
The mean of weight differences in the legs of the animals of the same experimental group was determined; the differences in the mean values calculated for each experimental group were processed using Student's "t" test (Biostatistics in Pharmacology, loc cit.).
The experimental procedure which was used is described by Miller, T. E. et al, (1973), Immunopotentiation with BCG. Modulation of the response to sheep red blood cells. J. Cancer Inst., 51:1669.

thymocytes = experiment: "In vitro-ex vivo" mytogen (PHA, Con A)-induced murine thymocite proliferation; parameters: species or system mice; conditions: for Body weight / Thymus weight / Con A AUC (× 10^-3) / Con A I.S. (stimulation index) / PHA AUC (area under curve) / PHA I.S. (stimulation index) / Thymocytes No. (× 10^7): 25 mg/kg/day i.p. from day -4 to day -1; for Con A AUC (× 10^-3) / Con A I.S. (stimulation index): Con A-induced proliferation; for PHA AUC (area under curve) / PHA I.S. (stimulation index): PHA-induced proliferation; for extent of induced thymocyte proliferation (in words): comparison with ST 789; for Thymocytes No. (× 10^7): pooled samples
Procedure: Test 7 Assessment of the "in vitro-ex vivo" effect of ST 754, ST 785 and ST 789 on the mytogen (PHA, Con A)-induced murine thymocite proliferation.
The compounds were administered at the dose of 25 mg/kg/day from day -4 to day -1 (thymus excision at day 0). This test was conducted following the procedure described for test 5.
The Stimulation Index (S.I.) is as defined in test 5.

[2] = 25 mg/kg/day i.p. from day -5 to day -1

Row | Molecule | Body weight [1] | Spleen weight [1] | Thymus weight [1] | ^3 H-TdR Incorporation (cpm ± S.E.) Non stimulated responders [1] | ^3 H-TdR Incorporation (cpm ± S.E.) Stimulated responders [1] | stimulator splenocytes-induced proliferation of responder thymocytes (in words) [1] | Thymocytes No. (× 10^7) [1] | mortality (Klebsiella oxytoca) | Body weight (thymocytes) | Thymus weight (thymocytes) | Con A AUC (× 10^-3) (thymocytes) | Con A I.S. (stimulation index) (thymocytes) | PHA AUC (area under curve) (thymocytes) | PHA I.S. (stimulation index) (thymocytes) | extent of induced thymocyte proliferation (in words) (thymocytes) | Thymocytes No. (× 10^7) (thymocytes) | other results
1 | C[C@H](NC(=O)OCCCCCn1cnc2c(=O)[nH]cnc21)C(=O)NCC(=O)[O-].[Na+] [ST 733, N-5-(ipoxantin-9-yl) pentyloxycarbonyl L-alanyl-glycine sodium salt] | 21.8 ± 0.8 g | 88.7 ± 13.6 mg | 61.5 ± 2.7 mg | 163.0 cpm | 11187 cpm | more potent than ST 789 | 15.5 × 10^7 | no mortality at all | – | – | – | – | – | – | – | – | Body weight (splenocytes; [2]): 23.4 ± 0.2 g; Spleen weight (splenocytes; [2]): 74.0 ± 4.0 mg; Thymus weight (splenocytes; [2]): 75.0 ± 4.0 mg; PHA AUC (area under curve, cpm versus three mytogen concentrations) (splenocytes; PHA 0.5, 2 and 4 mcg/mL/well, 25 mg/kg/day i.p. from day -5 to day -1): 160 × 10^-3; PHA I.S. (stimulation index) (splenocytes; PHA-induced proliferation, 25 mg/kg/day i.p. from day -5 to day -1): 1.82; mytogen-induced proliferation versus the controls (in words) (splenocytes; PHA, 25 mg/kg/day i.p.): remarkable increase; Splenocytes No. (× 10^7) (splenocytes; pooled samples, 25 mg/kg/day i.p. from day -5 to day -1): 14.7 × 10^7
2 | C[C@H](NC(=O)OCCCCCn1cnc2c(=O)[nH]cnc21)C(=O)N[C@@H](CCCNC(=N)N)C(=O)O [ST 785, N-5-(ipoxantin-9-yl) pentyloxycarbonyl L-alanyl-arginine] | – | – | – | – | – | – | – | – | 22.5 ± 0.4 g | 73.0 ± 2.7 mg | 79 × 10^-3 | 1.26 | 4421 | 1.58 | more potent than ST 789 | 15.1 × 10^7 | Mean difference in weight (mg ± S.E.) between treated and untreated foot-pads (DTH reaction vs. SRBC; 25 mg/kg/day i.p. from day -3 to day +3 respect to the immunization): 22.4 ± 3.79 mg; response to the DTH test (in words) (DTH reaction vs. SRBC; 25 mg/kg/day i.p., p≤0.01): remarkably reduce
3 | N-5-(ipoxantin-9-yl) pentyloxycarbonyl L-(alpha) aspartyl L-arginine sodium salt [ST 754] | 22.3 ± 0.5 g | 81.2 ± 3.3 mg | 57.5 ± 8.4 mg | 89.2 cpm | 11011 cpm | more potent than ST 789 | 12.9 × 10^7 | no mortality at all | 22.9 ± 0.5 g | 74.0 ± 3.4 mg | 78 × 10^-3 | 1.25 | 3132 | 1.12 | more potent than ST 789 | 15.4 × 10^7 | –
